What was measured:
BJeLR = assay: Modulatory profiling: Alamar Blue viability, lethal compound cotreated with death modulator (EC50, AUC); format: cell-based, human; set-up: AUC, modulator BJ.Gd3+ / AUC, modulator BJ.LNAME / AUC, modulator BJ.Lmin / AUC, modulator BJ.3MA / AUC, modulator BJ.ALLN / AUC, modulator BJ.Boc D / AUC, modulator BJ.CHX / AUC, modulator BJ.Co2+ / AUC, modulator BJ.Nec-1 / AUC, modulator BJ.Pepstatin / AUC, modulator BJ.TLCK / AUC, modulator BJ.atoc / AUC, modulator BJ.trolox / AUC, modulator BJ.zVAD: unit not given beside the values; details: BJeLR cells, modulatory profile value (AUC); for AUC, modulator BJ.3MA: lethal compound cotreated with modulator 3MA; for AUC, modulator BJ.ALLN: lethal compound cotreated with modulator ALLN; for AUC, modulator BJ.Boc D: lethal compound cotreated with modulator Boc D; for AUC, modulator BJ.CHX: lethal compound cotreated with modulator CHX; for AUC, modulator BJ.Co2+: lethal compound cotreated with modulator Co2+; for AUC, modulator BJ.DPQ: lethal compound cotreated with modulator DPQ; for AUC, modulator BJ.Gd3+: lethal compound cotreated with modulator Gd3+; for AUC, modulator BJ.LNAME: lethal compound cotreated with modulator LNAME; for AUC, modulator BJ.Lmin/NAD+: lethal compound cotreated with modulator Lmin/NAD+; for AUC, modulator BJ.Lmin: lethal compound cotreated with modulator Lmin; for AUC, modulator BJ.NAD+: lethal compound cotreated with modulator NAD+; for AUC, modulator BJ.NMMA: lethal compound cotreated with modulator NMMA; for AUC, modulator BJ.Nec-1: lethal compound cotreated with modulator Nec-1; for AUC, modulator BJ.Pepstatin: lethal compound cotreated with modulator Pepstatin; for AUC, modulator BJ.TLCK: lethal compound cotreated with modulator TLCK; as to AUC, modulator BJ.3MA: reference of the scale not given here; as to AUC, modulator BJ.ALLN: reference of the scale not given here; as to AUC, modulator BJ.Boc D: reference of the scale not given here; as to AUC, modulator BJ.CHX: reference of the scale not given here; as to AUC, modulator BJ.Co2+: reference of the scale not given here; as to AUC, modulator BJ.DPQ: reference of the scale not given here; as to AUC, modulator BJ.Gd3+: reference of the scale not given here; as to AUC, modulator BJ.LNAME: reference of the scale not given here; as to AUC, modulator BJ.NAD+: reference of the scale not given here; as to AUC, modulator BJ.NMMA: reference of the scale not given here; as to AUC, modulator BJ.Nec-1: reference of the scale not given here; as to AUC, modulator BJ.Pepstatin: reference of the scale not given here; as to AUC, modulator BJ.TLCK: reference of the scale not given here
HT-1080 = assay: as above; format: cell-based; set-up: AUC, modulator HT.3MA / AUC, modulator HT.ALLN / AUC HT.ATA / AUC HT.ActD / AUC HT.BHA / AUC HT.BHT / AUC HT.BocD / AUC HT.CHX / AUC HT.Co2+ / AUC HT.DPQ / AUC HT.EGTA / AUC HT.Lmim / AUC HT.NAD+ / AUC HT.Nec-1 / AUC HT.SP600125 / AUC HT.TLCK / AUC HT.U0126: unit not given beside the values; details: for AUC HT.ATA: HT-1080, modulator ATA; for AUC HT.ActD: HT-1080, modulator ActD; for AUC HT.BHA: HT-1080, modulator BHA; for AUC HT.BHT: HT-1080, modulator BHT; for AUC HT.BocD: HT-1080, modulator BocD; for AUC HT.CHX: HT-1080, modulator CHX; for AUC HT.Co2+: HT-1080, modulator Co2+; for AUC HT.CspA: HT-1080, modulator CspA; for AUC HT.DPQ: HT-1080, modulator DPQ; for AUC HT.EGTA: HT-1080, modulator EGTA; for AUC HT.Gd3+: HT-1080, modulator Gd3+; for AUC HT.LNAME: HT-1080, modulator LNAME; for AUC HT.Lmim: HT-1080, modulator Lmim; for AUC HT.NAD+: HT-1080, modulator NAD+; for AUC HT.NMMA: HT-1080, modulator NMMA; for HT.atoc (AUC) / HT.bCarotene (AUC) / HT.deferox (AUC) / HT.digoxin (AUC) / HT.trolox (AUC) / HT.zVAD (AUC): HT-1080; for HT.atoc (AUC): modulator atoc; for HT.bCarotene (AUC): modulator bCarotene; for HT.deferox (AUC): modulator deferox; for HT.digoxin (AUC): modulator digoxin; for HT.trolox (AUC): modulator trolox; for HT.zVAD (AUC): modulator zVAD; as to AUC HT.BHA: reference of the scale not given here; as to AUC HT.EGTA: reference of the scale not given here

Q: How did the “AUC, modulator BJ.3MA” value (BJeLR) turn out when CN(C)CCNC(=O)c1cc2c(s1)-c1ccc(Cl)cc1SC2 [CIL55] was run?
A: 0.06354

Q: What about the “AUC, modulator BJ.ALLN” value (BJeLR) of the same compound?
A: −0.04685

Q: What about the “AUC, modulator BJ.Boc D” value (BJeLR) of the same compound?
A: −0.01499

Q: And the “AUC, modulator BJ.CHX” value (BJeLR)?
A: 0.0373

Q: And the “AUC, modulator BJ.Co2+” value (BJeLR)?
A: 0.03522

Q: What about the “AUC, modulator BJ.DPQ” value (BJeLR) of the same compound?
A: 0.01735

Q: And the “AUC, modulator BJ.Gd3+” value (BJeLR)?
A: 0.003555

Q: And the “AUC, modulator BJ.LNAME” value (BJeLR)?
A: −0.02008

Q: And the “AUC, modulator BJ.Lmin/NAD+” value (BJeLR)?
A: 0.1924

Q: What about the “AUC, modulator BJ.Lmin” value (BJeLR) of the same compound?
A: 0.08143

Q: What about the “AUC, modulator BJ.NAD+” value (BJeLR) of the same compound?
A: 0.02772

Q: What about the “AUC, modulator BJ.NMMA” value (BJeLR) of the same compound?
A: −0.002759

Q: And the “AUC, modulator BJ.Nec-1” value (BJeLR)?
A: 0.09849

Q: What about the “AUC, modulator BJ.Pepstatin” value (BJeLR) of the same compound?
A: 0.02873

Q: And the “AUC, modulator BJ.TLCK” value (BJeLR)?
A: 0.07378

Q: What about the “AUC HT.ATA” value (HT-1080) of the same compound?
A: 0.05195

Q: And the “AUC HT.ActD” value (HT-1080)?
A: −0.0079

Q: What about the “AUC HT.BHA” value (HT-1080) of the same compound?
A: 0.09593

Q: What about the “AUC HT.BHT” value (HT-1080) of the same compound?
A: 0.04919

Q: What about the “AUC HT.BocD” value (HT-1080) of the same compound?
A: 0.01568

Q: What about the “AUC HT.CHX” value (HT-1080) of the same compound?
A: −0.01039

Q: What about the “AUC HT.Co2+” value (HT-1080) of the same compound?
A: 0.1152

Q: What about the “AUC HT.CspA” value (HT-1080) of the same compound?
A: −0.007883

Q: And the “AUC HT.DPQ” value (HT-1080)?
A: 0.01405

Q: What about the “AUC HT.EGTA” value (HT-1080) of the same compound?
A: 0.04877

Q: And the “AUC HT.Gd3+” value (HT-1080)?
A: −0.01479

Q: And the “AUC HT.LNAME” value (HT-1080)?
A: 0.007171

Q: And the “AUC HT.Lmim” value (HT-1080)?
A: 0.07005

Q: And the “AUC HT.NAD+” value (HT-1080)?
A: 0.03996

Q: What about the “AUC HT.NMMA” value (HT-1080) of the same compound?
A: 0.004761

Q: And the “HT.atoc (AUC)” value (HT-1080)?
A: 0.2074

Q: What about the “HT.bCarotene (AUC)” value (HT-1080) of the same compound?
A: 0.001297

Q: And the “HT.deferox (AUC)” value (HT-1080)?
A: 0.1108

Q: And the “HT.digoxin (AUC)” value (HT-1080)?
A: −0.0491

Q: What about the “HT.trolox (AUC)” value (HT-1080) of the same compound?
A: 0.1469

Q: What about the “HT.zVAD (AUC)” value (HT-1080) of the same compound?
A: 0.0266

Q: Which results are given for O=c1c(Cl)c(Cl)cnn1-c1ccc(Cl)cc1 [CIL63]?
A: AUC, modulator BJ.3MA (BJeLR): 0.04075; AUC, modulator BJ.ALLN (BJeLR): 0.0544; AUC, modulator BJ.Boc D (BJeLR): −0.01053; AUC, modulator BJ.CHX (BJeLR): 0.09508; AUC, modulator BJ.Co2+ (BJeLR): 0.02177; AUC, modulator BJ.DPQ (BJeLR): 0.0003046; AUC, modulator BJ.Gd3+ (BJeLR): 0.01459; AUC, modulator BJ.LNAME (BJeLR): −0.006812; AUC, modulator BJ.Lmin/NAD+ (BJeLR): 0.07776; AUC, modulator BJ.Lmin (BJeLR): 0.01215; AUC, modulator BJ.NAD+ (BJeLR): 0.02352; AUC, modulator BJ.NMMA (BJeLR): 0.002719; AUC, modulator BJ.Nec-1 (BJeLR): 0.02815; AUC, modulator BJ.Pepstatin (BJeLR): 0.02882; AUC, modulator BJ.TLCK (BJeLR): −0.0437; AUC HT.ATA (HT-1080): 0.07925; AUC HT.ActD (HT-1080): −0.003254; AUC HT.BHA (HT-1080): 0.01784; AUC HT.BHT (HT-1080): −0.1088; AUC HT.BocD (HT-1080): 0.01855; AUC HT.CHX (HT-1080): 0.07744; AUC HT.Co2+ (HT-1080): 0.02639; AUC HT.CspA (HT-1080): 0.003063; AUC HT.DPQ (HT-1080): −0.02172; AUC HT.EGTA (HT-1080): 0.06222; AUC HT.Gd3+ (HT-1080): −0.03164; AUC HT.LNAME (HT-1080): 0.04201; AUC HT.Lmim (HT-1080): 0.03962; AUC HT.NAD+ (HT-1080): 0.03316; AUC HT.NMMA (HT-1080): −0.002298; HT.atoc (AUC) (HT-1080): 0.07269; HT.bCarotene (AUC) (HT-1080): 0.0644; HT.deferox (AUC) (HT-1080): 0.08989; HT.digoxin (AUC) (HT-1080): 0.02371; HT.trolox (AUC) (HT-1080): 0.03222; HT.zVAD (AUC) (HT-1080): 0.01846

Q: With O=[N+]([O-])c1ccc(O)c([N+](=O)[O-])c1 as the compound, how does the “AUC, modulator BJ.3MA” value (BJeLR) read?
A: −0.008182

Q: And the “AUC, modulator BJ.ALLN” value (BJeLR)?
A: −0.03838

Q: And the “AUC, modulator BJ.Boc D” value (BJeLR)?
A: −0.01714

Q: What about the “AUC, modulator BJ.CHX” value (BJeLR) of the same compound?
A: 0.189

Q: And the “AUC, modulator BJ.Co2+” value (BJeLR)?
A: −0.008316

Q: What about the “AUC, modulator BJ.DPQ” value (BJeLR) of the same compound?
A: −0.03251

Q: And the “AUC, modulator BJ.Gd3+” value (BJeLR)?
A: −0.01413

Q: What about the “AUC, modulator BJ.LNAME” value (BJeLR) of the same compound?
A: −0.0202

Q: What about the “AUC, modulator BJ.Lmin” value (BJeLR) of the same compound?
A: −0.0205

Q: What about the “AUC, modulator BJ.NAD+” value (BJeLR) of the same compound?
A: 0.06986

Q: What about the “AUC, modulator BJ.NMMA” value (BJeLR) of the same compound?
A: −0.02735

Q: What about the “AUC, modulator BJ.Nec-1” value (BJeLR) of the same compound?
A: −0.001955

Q: What about the “AUC, modulator BJ.Pepstatin” value (BJeLR) of the same compound?
A: 0.05394

Q: What about the “AUC, modulator BJ.TLCK” value (BJeLR) of the same compound?
A: −0.0426

Q: What about the “AUC, modulator BJ.atoc” value (BJeLR; lethal compound cotreated with modulator atoc) of the same compound?
A: 0.02318

Q: And the “AUC, modulator BJ.trolox” value (BJeLR; lethal compound cotreated with modulator trolox)?
A: 0.009957

Q: And the “AUC, modulator BJ.zVAD” value (BJeLR; lethal compound cotreated with modulator zVAD)?
A: −0.0001198

Q: And the “AUC, modulator HT.3MA” value (HT-1080; HT-1080 cells, lethal compound cotreated with modulator 3MA, modulatory profile value (AUC))?
A: −0.1332

Source: patent US10947188B2, “Small molecule ferroptosis inducers” (THE TRUSTEES OF COLUMBIA UNIVERSITY IN THE CITY OF NEW YORK, priority 2016, dated 2021)
